Data from US9198426B2, “Use of 5 pyridin-4-yl-1,3-thiazoles for controlling phytopathogenic fungi” (Bayer Intellectual Property GmbH, priority 2008, dated 2015).
Marks after values point to notes of the source that are not given here.

Legend:
[1] = physchem; type: physicochemical
[2] = test system: Fusarium graminearum; experiment: microbe, parasite or virus in culture; type: cell-based; details: 168 h, read-out: activity in the inhibition of DON/AcDON production
[3] = test system: Fusarium proliferatum; experiment: Production of fumonisin FB1 by Fusarium proliferatum (microtitre plates); type: cell-based; details: 120 h, 5 days, 20° C., HPLC-MS/MS

Compound | log p ([1]; pH 2.7) | log p ([1]; pH 7.8) | also measured
CCc1nc(-c2ccc(F)cc2)c(-c2ccnc(NC(=O)C3(C)CC3)c2)s1 [compound 95] | 3.89^[b] | 4.03^[c]; | 
CCc1nc(-c2ccc(F)cc2)c(-c2ccnc(N(C(C)=O)C3CC3)c2)s1 [Ex. 80, N-Cyclopropyl-N-{4-[2-ethyl-4-(4-fluorophenyl)-1,3-thiazol-5-yl]pyridin-2-yl}acetamide] |  |  | chromatographic logP ([1]; pH 2.7): 2.81; chromatographic logP ([1]; pH 7.8): 2.88
CCc1nc(-c2ccc(F)cc2)c(-c2ccnc(Cl)c2)s1 [Ex. 58, 2-Chloro-4-[2-ethyl-4-(4-fluorophenyl)-1,3-thiazol-5-yl]pyridine] |  |  | chromatographic logP ([1]; pH 2.7): 4.07; chromatographic logP ([1]; pH 7.8): 4.1
CCc1nc(-c2ccc(F)cc2)c(-c2ccnc(C(=O)N(C)CC)c2)s1 [compound 73] | 2.81^[b] | 2.87^[c]; | 
CCc1nc(-c2ccc(F)cc2)c(-c2ccnc(NCC(C)OC)c2)s1 (centres unmarked) [compound 78] | 1.73^[b] | 3.67^[c]; | 
CCc1nc(-c2ccc(F)cc2)c(-c2ccnc(C(=O)NC3CC3)c2)s1 [Ex. 75, N-Cyclopropyl-4-[2-ethyl-4-(4-fluorophenyl)-1,3-thiazol-5-yl]pryridine-2-carboxamide] | 3.46^[b] | 3.5^[c]; | 
Fc1ccc(-c2nc(C(F)F)sc2-c2ccncc2)cc1 [compound 88] | 2.48^[b] | 3.01^[c]; | 
CCc1nc(-c2ccc(F)cc2)c(-c2ccnc(NC(C)COC)c2)s1 (centres unmarked) [compound 70] | 1.78^[b] |  | 
CCc1nc(-c2ccc(F)cc2)c(-c2ccnc(N(C)C(C)=O)c2)s1 [compound 68] | 2.71^[b] |  | 
CCc1nc(-c2ccc(F)cc2)c(-c2ccnc(N(C(=O)OC(C)C)C(=O)OC(C)C)c2)s1 [compound 93] | 4.5^[b] | 4.49^[c]; | 
CCc1nc(-c2ccc(F)cc2)c(-c2ccnc(NC(=O)C(C)C)c2)s1 [compound 82] | 3.52^[b] | 3.66^[c]; | 
CCc1nc(-c2ccc(F)cc2)c(-c2ccnc(NC(=O)OC(C)(C)C)c2)s1 [compound 65] | 4.63^[b] |  | 
CCc1nc(-c2ccc(F)cc2)c(-c2ccnc(NC(=O)CCl)c2)s1 [compound 98] | 3.29^[b] | 3.32^[c]; | 
Cc1nc(-c2ccc(F)cc2)c(-c2ccncc2)s1 [compound 44] | 1.48^[b] |  | 
CCc1nc(-c2ccc(F)cc2)c(-c2ccnc(NC(=O)c3ccsc3)c2)s1 [compound 57] | 3.83^[b] |  | 
CCc1nc(-c2ccc(F)cc2)c(-c2ccnc(NC(C)C)c2)s1 [compound 101] | 1.73^[b] | 4.11^[c]; | 
CCCCc1nc(-c2ccc(F)cc2)c(-c2ccnc(NC(=O)c3ccccc3)c2)s1 [compound 66] | 5.07^[b] |  | 
C#CCN(C(C)=O)c1cc(-c2sc(CC)nc2-c2ccc(F)cc2)ccn1 [compound 102] | 3.03^[b] | 3.02^[c]; | 
CCc1nc(-c2ccc(Cl)s2)c(-c2ccncc2)s1 [compound 42] | 3.06^[b] | 3.88^[c]; | 
CCc1nc(-c2ccc(F)cc2)c(-c2ccnc(NC(=O)CC(C)C)c2)s1 [compound 99] | 3.91^[b] | 4.04^[c]; | 
Fc1ccc(-c2nc(C3CC3)sc2-c2ccncc2)cc1 [compound 89] | 2.16^[b] | 3.32^[c]; | 
CC(C)(C)c1nc(-c2ccc(F)cc2)c(-c2ccncc2)s1 [compound 46] | 3.29^[b] |  | 

Compound | log p ([1]; pH 2.7) | log p ([1]; pH 7.8) | also measured
CCc1nc(-c2ccc(F)cc2)c(-c2ccnc(N(S(C)(=O)=O)S(C)(=O)=O)c2)s1 [compound 92] | 3.23^[b] | 3.24^[c]; | 
CCc1nc(-c2ccc(F)cc2)c(-c2ccnc(NC(=O)c3ccc(F)cc3)c2)s1 [compound 52] | 4.18^[b] |  | 
CCc1nc(-c2ccc(F)cc2)c(-c2ccncc2)s1 [Ex. 41, 4-[2-Ethyl-4-(4-fluorophenyl)-1,3-thiazol-5-yl]pyridine] |  |  | inhibition at 50 µM [2]: > 70%; chromatographic logP ([1]; pH 2.3): 2.01; chromatographic logP ([1]; pH 7.8): 2.89; inhibition at 50 µM [3]: > 70%
CCc1nc(-c2ccc(F)cc2)c(-c2ccnc(N(C)C(=O)c3ccccc3)c2)s1 [compound 67] | 3.68^[b] |  | 
CCc1nc(-c2ccc(F)cc2)c(-c2ccnc(NC(=O)c3ccc(C)cc3)c2)s1 [compound 50] | 4.48^[b] |  | 
CCc1nc(-c2ccc(C)c(C)c2)c(-c2ccncc2)s1 [compound 48] | 2.49^[b] |  | 
CCc1nc(-c2cccs2)c(-c2ccncc2)s1 [compound 103] | 1.94^[b] |  | 
Cc1cc(-c2sc(C(C)C)nc2-c2ccc(F)cc2)ccn1 [Ex. 100, 4-[4-(4-Fluorophenyl)-2-isopropyl-1,3-thiazol-5-yl]-2-methylpyridine] |  |  | chromatographic logP ([1]; pH 2.7): 2.1; chromatographic logP ([1]; pH 7.8): 4.06
CCCC(=O)Nc1cc(-c2sc(CC)nc2-c2ccc(F)cc2)ccn1 [Ex. 83, N-{4-[2-Ethyl-4-(4-fluorophenyl)-1,3-thiazol-5-yl]pyridin-2-}butanamide] | 3.45^[b] | 3.58^[c]; | 
CCc1nc(-c2ccc(F)cc2)c(-c2ccnc(NC(=O)C3CC3)c2)s1 [compound 86] | 3.22^[b] | 3.37^[c]; | 
CCc1nc(-c2ccc(F)cc2)c(-c2ccnc(NC(=O)OC(C)C)c2)s1 [compound 94] | 4.08^[b] | 4.18^[c]; | 
CCc1nc(-c2ccc(F)cc2)c(-c2ccnc(NCCc3ccccc3)c2)s1 [compound 62] | 2.17^[b] |  | 
O=C(c1ccc(Cl)s1)C(Br)c1ccncc1 (centres unmarked) [2-Bromo-1-(5-chloro-2-thienyl)-2-(pyridin-4-yl)ethanone] |  |  | chromatographic logP ([1]; pH 2.7): 2.18
CCc1nc(-c2ccccc2)c(-c2ccnc(NC(=O)c3ccccc3)c2)s1 [compound 69] | 3.91^[b] |  | 
CCc1nc(-c2ccc(F)cc2)c(-c2ccnc(NC(=O)COC)c2)s1 [compound 81] | 3.17^[b] | 3.21^[c]; | 
CCc1nc(-c2ccc(F)cc2)c(-c2ccnc(N3CCCC3)c2)s1 [compound 64] | 2^[b] |  | 
CCc1nc(-c2ccc(F)cc2)c(-c2ccnc(NC(=O)C(C)(C)C)c2)s1 [compound 51] | 4.18^[b] |  | 
CCc1nc(-c2ccc(F)cc2)c(-c2ccnc(NC(=O)C3CCCCC3)c2)s1 [compound 54] | 4.54^[b] |  | 
CCc1nc(-c2ccc(F)cc2)c(-c2ccnc(NCC(C)O)c2)s1 (centres unmarked) [compound 77] | 1.44^[b] | 2.74^[c]; | 
CCNc1cc(-c2sc(CC)nc2-c2ccc(F)cc2)ccn1 [compound 76] | 1.54^[b] | 3.64^[c]; | 
CCc1nc(-c2ccc(F)cc2)c(-c2ccnc(NC(=O)c3cccs3)c2)s1 [compound 56] | 3.92^[b] |  | 
CCc1nc(-c2ccc(F)cc2)c(-c2ccnc(C)c2)s1 [Ex. 96, 4-[2-Ethyl-4-(4-fluorophenyl)-1,3-thiazol-5-yl]-2-methylpyridine] |  |  | chromatographic logP ([1]; pH 2.7): 1.68

Compound | log p ([1]; pH 2.7) | log p ([1]; pH 7.8) | also measured
CC(C)c1nc(-c2ccc(F)cc2)c(-c2ccncc2)s1 [compound 43] | 2.56^[b] | 3.71^[c]; | 
CCc1nc(-c2ccc(F)cc2)c(-c2ccnc(NC(=O)C3CCC3)c2)s1 [compound 84] | 3.68^[b] | 3.82^[c]; | 
CCc1nc(-c2ccc(F)cc2)c(-c2ccnc(NC(=O)OC)c2)s1 [compound 87] | 3.14^[b] | 3.22^[c]; | 
CCc1nc(-c2ccc(F)cc2)c(-c2ccnc(NC3CCCC3)c2)s1 [compound 63] | 1.94^[b] |  | 
CCc1nc(-c2ccc(F)cc2)c(-c2ccnc(NC3CC3)c2)s1 [Ex. 72, N-Cyclopropyl-4-[2-ethyl-4-(4-fluorophenyl)-1,3-thiazol-5-yl]pyridine-2-amine] |  |  | chromatographic logP ([1]; pH 2.7): 1.74; chromatographic logP ([1]; pH 7.8): 3.61
CCc1nc(-c2ccc(F)cc2)c(-c2ccnc(NCC(F)F)c2)s1 [compound 79] | 2.39^[b] | 3.76^[c]; | 
CCCCc1nc(-c2ccc(F)cc2)c(-c2ccncc2)s1 [compound 47] | 3.11^[b] |  | 
CCOC(=O)Nc1cc(-c2sc(CC)nc2-c2ccc(F)cc2)ccn1 [compound 85] | 3.61^[b] | 3.69^[c]; | 
CCc1nc(-c2ccc(F)cc2)c(-c2ccnc(NS(C)(=O)=O)c2)s1 [compound 91] | 2.36^[b] | 2.18^[c]; | 
CCc1nc(-c2ccc(F)cc2)c(-c2ccnc(NC(C)CO)c2)s1 (centres unmarked) [compound 71] | 1.44^[b] |  | 
CCc1nc(-c2ccc(F)cc2)c(-c2ccnc(NC(=O)CCc3ccccc3)c2)s1 [compound 55] | 4.23^[b] |  | 
CCc1nc(-c2ccc(F)cc2)c(-c2ccnc(N)c2)s1 [Ex. 35, 4-[2-Ethyl-4-(4-fluorophenyl)-1,3-thiazol-5-yl]pyridine-2-amine] |  |  | chromatographic logP ([1]; pH 2.7): 1.29
CCc1nc(-c2ccc(F)cc2)c(-c2ccnc(NCc3ccccc3)c2)s1 [Ex. 59, N-Benzyl-4-[2-ethyl-4-(4-fluorophenyl)-1,3-thiazol-5-yl]pyridine-2-amine] |  |  | chromatographic logP ([1]; pH 2.7): 2.32
C=C(C)C(=O)Nc1cc(-c2sc(CC)nc2-c2ccc(F)cc2)ccn1 [compound 90] | 3.6^[b] | 3.71^[c]; | 
CCc1nc(-c2ccc(F)cc2)c(-c2ccnc(NC(C)c3ccccc3)c2)s1 (centres unmarked) [compound 61] | 2.39^[b] |  | 
C=CCNc1cc(-c2sc(CC)nc2-c2ccc(F)cc2)ccn1 [compound 74] | 1.67^[b] | 3.8^[c]; | 
CCc1nc(-c2ccc(F)cc2)c(-c2ccnc(NC(=O)c3ccc(OC)cc3)c2)s1 [compound 53] | 4.04^[b] |  | 
CCc1nc(-c2cccc(C(F)(F)F)c2)c(-c2ccncc2)s1 [compound 49] | 3^[b] |  | 
Fc1ccc(-c2nc(Cc3ccccc3)sc2-c2ccncc2)cc1 [compound 45] | 2.94^[b] |  | 
CCc1nc(-c2ccc(F)cc2)c(-c2ccnc(N(C(C)=O)C(C)=O)c2)s1 [compound 97] | 2.95^[b] | 2.95^[c]; | 
CCc1nc(-c2ccc(F)cc2)c(-c2ccnc(Nc3ccccc3)c2)s1 [compound 60] | 3.1^[b] |  | 
